Laboratory results published in patent US20240252506A1 (Hoffmann-La Roche Inc., priority 2021, published 2024).
Converted amounts (≈) assume the structure as drawn. Where two headings read alike, the source gives them in different places.

Tested on: Escherichia coli ATCC 25922
Experiment: Minimal Inhibitory Concentration (MIC) determination, broth microdilution (CLSI M07-A10)
Format: cell-based
Conditions: for MIC: Escherichia coli; for Escherichia coli growth inhibition MIC: strain Escherichia coli ATCC 25922, 18-24 hours at 35±2° C.
Outline: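 Broth microdilution per CLSI M07-A10; compounds in 2-fold serial dilutions; inoculum from 0.5 McFarland suspension diluted 1:200 in broth. Incubated 18-24 h at 35±2° C in ambient air; MIC (μg/mL) taken as lowest concentration giving no visible growth.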

[1] = ATCC25922, strain Escherichia coli ATCC 25922, 18-24 hours at 35±2° C., lowest concentration for complete growth inhibition (no visible growth), read-out: Escherichia coli growth inhibition MIC
[2] = lowest concentration for complete growth inhibition (no visible growth)

Compound	MIC [1] [µg/mL]	also measured
NCCn1nnc2cc(F)c3c(c21)CC(CN1CCC2(CC1)CN(c1cnc4c(n1)NC(=O)CO4)C(=O)O2)C3 (centres unmarked) [Example 84, 6-[8-[[1-(2-aminoethyl)-5-fluoro-7,8-dihydro-6H-cyclopenta[e]benzotriazol-7-yl]methyl]-2-keto-1-oxa-3,8-diazaspiro[4.5]decan-3-yl]-4H-pyrazino[2,3-b][1,4]oxazin-3-one]	0.25 (≈ 0.465 µM)	
NCCn1nnc2c3c(c(F)cc21)CC(CN1CCC2(CC1)CN(c1cnc4c(n1)NC(=O)CO4)C(=O)O2)C3 (centres unmarked) [Example 85, 6-[8-[[3-(2-aminoethyl)-5-fluoro-7,8-dihydro-6H-cyclopenta[e]benzotriazol-7-yl]methyl]-2-keto-1-oxa-3,8-diazaspiro[4.5]decan-3-yl]-4H-pyrazino[2,3-b][1,4]oxazin-3-one]	0.25 (≈ 0.465 µM)	
C[C@@H](N)c1nc2cc3c(c(F)c2o1)CC(CN1CCC2(CC1)CN(c1cnc4c(n1)NC(=O)CO4)C(=O)O2)C3 (stereo partly drawn) [Example 90, 6-[8-[[2-[(1R)-1-aminoethyl]-8-fluoro-6,7-dihydro-5H-cyclopenta[f][1,3]benzoxazol-6-yl]methyl]-2-oxo-1-oxa-,38-diazaspiro[4.5]decan-3-yl]-4H-pyrazino[2,3-b][1,4]oxazin-3-one]	0.125 (≈ 0.233 µM)	
CNCc1nc2cc(F)c3c(c2[nH]1)CC(CN1CCC2(CC1)CN(c1cnc4c(n1)NC(=O)CO4)C(=O)O2)C3 (centres unmarked) [Example 92, 6-[8-[[5-fluoro-2-(methylaminomethyl)-1,6,7,8-tetrahydrocyclopenta[e]benzimidazol-7-yl]methyl]-2-oxo-1-oxa-3,8-diazaspiro[4.5]decan-3-yl]-4H-pyrazino[2,3-b][1,4]oxazin-3-one]	0.125 (≈ 0.233 µM)	
CNCc1nc2c(F)c3c(cc2o1)CC(CN1CCC2(CC1)CN(c1cnc4c(n1)NC(=O)CO4)C(=O)O2)C3 (centres unmarked) [Example 93, 6-[8-[[4-fluoro-2-(methylaminomethyl)-6,7-dihydro-5H-cyclopenta[f][1,3]benzoxazol-6-yl]methyl]-2-oxo-1-oxa-3,8-diazaspiro[4.5]decan-3-yl]-4H-pyrazino[2,3-b][1,4]oxazin-3-one]	0.125 (≈ 0.233 µM)	
CNCc1nc2c3c(c(F)cc2o1)CC(CN1CCC2(CC1)CN(c1cnc4c(n1)NC(=O)CO4)C(=O)O2)C3 (centres unmarked) [Example 96, 6-[8-[[5-fluoro-2-(methylaminomethyl)-7,8-dihydro-6H-cyclopenta[e][1,3]benzoxazol-7-yl]methyl]-2-oxo-1-oxa-3,8-diazaspiro[4.5]decan-3-yl]-4H-pyrazino[2,3-b][1,4]oxazin-3-one]	0.125 (≈ 0.233 µM)	
C[C@H](N)c1nc2cc3c(c(F)c2o1)CC(CN1CCC2(CC1)CN(c1cnc4c(n1)NC(=O)CO4)C(=O)O2)C3 (stereo partly drawn) [Example 97, 6-[8-[[2-[(1S)-1-aminoethyl]-8-fluoro-6,7-dihydro-5H-cyclopenta[f][1,3]benzoxazol-6-yl]methyl]-2-oxo-1-oxa-3,8-diazaspiro[4.5]decan-3-yl]-4H-pyrazino[2,3-b][1,4]oxazin-3-one]	0.125 (≈ 0.233 µM)	
O=C1COc2ncc(N3CC4(CCN(CC5Cc6cc7nc([C@@H]8CCN8)oc7c(F)c6C5)CC4)OC3=O)nc2N1 (stereo partly drawn) [Example 107, 6-[8-[[2-[(2S)-azetidin-2-yl]-8-fluoro-6,7-dihydro-5H-cyclopenta[f][1,3]benzoxazol-6-yl]methyl]-2-oxo-1-oxa-3,8-diazaspiro[4.5]decan-3-yl]-4H-pyrazino[2,3-b][1,4]oxazin-3-one]		Escherichia coli growth inhibition MIC [2]: 0.125 µg/mL
CNCCn1nc2c(F)c3c(c(F)c2n1)CC(CN1CCC2(CC1)CN(c1cnc4c(n1)NC(=O)CO4)C(=O)O2)C3.O=CO [Example 117, 6-[8-[[4,8-difluoro-2-[2-(methylamino)ethyl]-6,7-dihydro-5H-cyclopenta[f]benzotriazol-6-yl]methyl]-2-oxo-1-oxa-3,8-diazaspiro[4.5]decan-3-yl]-4H-pyrazino[2,3-b][1,4]oxazin-3-one; formic acid]	0.25	
O=C1COc2ncc(N3CC4(CCN(CC5Cc6c(c(F)c7nn(CCNC8CC8)nc7c6F)C5)CC4)OC3=O)nc2N1 [Example 122]	0.5 (≈ 0.839 µM)	
C[C@H](N)Cn1nc2c(F)c3c(c(F)c2n1)CC(CN1CCC2(CC1)CN(c1cnc4c(n1)NC(=O)CO4)C(=O)O2)C3 [Example 123, 6-[8-[[2-[(2S)-2-aminopropyl]-4,8-difluoro-6,7-dihydro-5H-cyclopenta[f]benzotriazol-6-yl]methyl]-2-oxo-1-oxa-3,8-diazaspiro[4.5]decan-3-yl]-4H-pyrazino[2,3-b][1,4]oxazin-3-one; formic acid]		MIC (ATCC25922, read-out: Escherichia coli growth inhibition MIC, strain Escherichia coli ATCC 25922, 18-24 hours at 35±2° C., lowest concentration for complete growth inhibition (no visible growth)): 0.125 µg/mL (≈ 0.219 µM)
C[C@H](N)Cn1cnc2c(F)c3c(c(F)c21)CC(CN1CCC2(CC1)CN(c1cnc4c(n1)NC(=O)CO4)C(=O)O2)C3 (stereo partly drawn) [Example 128, 6-[8-[[1-[(2S)-2-aminopropyl]-4,8-difluoro-6,7-dihydro-5H-cyclopenta[f]benzimidazol-6-yl]methyl]-2-oxo-1-oxa-3,8-diazaspiro[4.5]decan-3-yl]-4H-pyrazino[2,3-b][1,4]oxazin-3-one]	0.25 (≈ 0.44 µM)	
C[C@H](N)Cn1cnc2c(F)c3c(c(F)c21)CC(CN1CCC2(CC1)CN(c1cnc4c(n1)NC(=O)CO4)C(=O)O2)C3 (stereo partly drawn) [Example 129, 6-[8-[[1-[(2S)-2-aminopropyl]-4,8-difluoro-6,7-dihydro-5H-cyclopenta[f]benzimidazol-6-yl]methyl]-2-oxo-1-oxa-3,8-diazaspiro[4.5]decan-3-yl]-4H-pyrazino[2,3-b][1,4]oxazin-3-one; formic acid]		Escherichia coli growth inhibition MIC [2]: 0.25 µg/mL
N[C@H]1COC[C@@H]1c1nc2cc3c(c(F)c2o1)CC(CN1CCC2(CC1)CN(c1cnc4c(n1)NC(=O)CO4)C(=O)O2)C3 (stereo partly drawn) [Example 138, 6-[8-[[2-[(3R,4R)-4-Aminotetrahydrofuran-3-yl]-8-fluoro-6,7-dihydro-5H-cyclopenta[f][1,3]benzoxazol-6-yl]methyl]-2-oxo-1-oxa-3,8-diazaspiro[4.5]decan-3-yl]-4H-pyrazino[2,3-b][1,4]oxazin-3-one]	1 (≈ 1.73 µM)	
N[C@H]1COC[C@@H]1c1nc2cc3c(c(F)c2o1)CC(CN1CCC2(CC1)CN(c1cnc4c(n1)NC(=O)CO4)C(=O)O2)C3 (stereo partly drawn) [Example 139, 6-[8-[[2-[(3R,4R)-4-Aminotetrahydrofuran-3-yl]-8-fluoro-6,7-dihydro-5H-cyclopenta[f][1,3]benzoxazol-6-yl]methyl]-2-oxo-1-oxa-3,8-diazaspiro[4.5]decan-3-yl]-4H-pyrazino[2,3-b][1,4]oxazin-3-one]		Escherichia coli growth inhibition MIC [2]: 1 µg/mL
O=C1COc2ncc(N3CC4(CCN(CC5Cc6cc7nc([C@H]8CCN8)oc7c(F)c6C5)CC4)OC3=O)nc2N1 (stereo partly drawn) [Example 140, 6-[8-[[2-[(2R)-azetidin-2-yl]-8-fluoro-6,7-dihydro-5H-cyclopenta[f][1,3]benzoxazol-6-yl]methyl]-2-oxo-1-oxa-3,8-diazaspiro[4.5]decan-3-yl]-4H-pyrazino[2,3-b][1,4]oxazin-3-one]		Escherichia coli growth inhibition MIC [2]: 0.25 µg/mL
O=C1COc2ncc(N3CC4(CCN(CC5Cc6cc7nc([C@@H]8C[C@@H](O)CN8)oc7c(F)c6C5)CC4)OC3=O)nc2N1 (stereo partly drawn) [Example 142, 6-[8-[[8-Fluoro-2-[(2S,4R)-4-hydroxypyrrolidin-2-yl]-6,7-dihydro-5H-cyclopenta[f][1,3]benzoxazol-6-yl]methyl]-2-oxo-1-oxa-3,8-diazaspiro[4.5]decan-3-yl]-4H-pyrazino[2,3-b][1,4]oxazin-3-one]		Escherichia coli growth inhibition MIC [2]: 0.5 µg/mL
